ChEMBL document CHEMBL1201862, “PubChem BioAssay data set” (2004)
Active and inactive are the calls of the source.

How the values were obtained:
Cannabinoid receptor 1 = Cannabinoid receptor 1 (Homo sapiens, UniProt P21554); assay: SAR analysis of antagonists of the Cannabinoid Receptor 1 using an Image-Based Assay. [Related pubchem assays (depositor defined):AID1961, AID1965]; format: functional
[1] = molecular target: T1, G-protein coupled receptor 55 (Homo sapiens, UniProt Q9Y2T6); assay: selective activators of receptor GPR55 – imaging, U2OS cells, beta-arrestin-GFP redistribution, primary screen (AID 1961); format: functional
Cannabinoid receptor 2 [2] = molecular target: T2, Cannabinoid receptor 2 (Homo sapiens, UniProt P34972); assay: SAR analysis of agonists of the Cannabinoid Receptor 2 using an Image-Based Assay - Set 2. [Related pubchem assays (depositor defined):AID1961, AID1965]; format: functional
[3] = molecular target: T1, G-protein coupled receptor 55; assay: SAR analysis of selective Agonists of GPR55 using an Image-Based Assay. [Related pubchem assays (depositor defined):AID1961, AID1965]; format: functional
Cannabinoid receptor 2 [4] = molecular target: T2, Cannabinoid receptor 2; assay: SAR analysis of antagonists of the Cannabinoid Receptor 2 using an Image-Based Assay - Set 2. [Related pubchem assays (depositor defined):AID1961, AID1965]; format: functional
[5] = molecular target: T3, Type-1 angiotensin II receptor (Homo sapiens, UniProt P30556); assay: agonist activity at AGTR1 – cell-based, uHTS hits, selectivity assay for APJ receptor agonist project, dose response (AID 488865); format: functional;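 further: beta-arrestin recruitment to AT1 measured by enzyme fragment complementation luminescence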
T3 sequence (P30556 whole entry): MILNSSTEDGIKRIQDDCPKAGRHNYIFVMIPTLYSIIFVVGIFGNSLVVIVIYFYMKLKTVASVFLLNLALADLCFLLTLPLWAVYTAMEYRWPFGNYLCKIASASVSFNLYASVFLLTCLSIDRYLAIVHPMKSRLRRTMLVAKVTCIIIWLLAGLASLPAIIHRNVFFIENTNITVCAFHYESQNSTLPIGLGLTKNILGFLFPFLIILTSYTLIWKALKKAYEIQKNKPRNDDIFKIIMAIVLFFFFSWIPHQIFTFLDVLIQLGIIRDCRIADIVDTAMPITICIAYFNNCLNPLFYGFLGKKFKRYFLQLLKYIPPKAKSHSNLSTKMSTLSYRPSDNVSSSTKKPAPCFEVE

[6] = molecular target: T4, Sphingosine 1-phosphate receptor 4 (Homo sapiens, UniProt O95977); assay: Late-stage fluorescence dose response cell-based assay to identify agonists of the Sphingosine 1-Phosphate Receptor 4 (S1P4): purchased compounds EC50. [Related pubchem assays (depositor defined):AID1509, AID1523, AID1563, AID1686, AID1701, AID1801]; format: functional
T4 sequence (O95977 whole entry): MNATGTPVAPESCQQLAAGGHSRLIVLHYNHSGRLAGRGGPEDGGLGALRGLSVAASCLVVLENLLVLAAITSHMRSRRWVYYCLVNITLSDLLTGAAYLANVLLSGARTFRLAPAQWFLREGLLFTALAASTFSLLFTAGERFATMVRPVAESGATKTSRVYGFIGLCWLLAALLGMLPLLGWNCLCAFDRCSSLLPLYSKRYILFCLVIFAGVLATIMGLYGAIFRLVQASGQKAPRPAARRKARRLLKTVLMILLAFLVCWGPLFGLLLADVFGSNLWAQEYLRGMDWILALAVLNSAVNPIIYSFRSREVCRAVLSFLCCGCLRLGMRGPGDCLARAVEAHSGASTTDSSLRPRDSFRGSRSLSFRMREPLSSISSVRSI

[7] = molecular target: Lysosomal acid glucosylceramidase (Homo sapiens, UniProt P04062); assay: Dose response cell-based high throughput screening assay to identify enhancers of beta-glucosidase activity. [Related pubchem assays: 784 ]; format: functional
Hexokinase HKDC1 = molecular target: T5, Hexokinase HKDC1 (Homo sapiens, UniProt Q2TB90); assay: activation of HKDC1 glucose phosphorylation – biochemical, W721R variant, dose response (AID 504730); format: functional
T5 sequence (Q2TB90 whole entry): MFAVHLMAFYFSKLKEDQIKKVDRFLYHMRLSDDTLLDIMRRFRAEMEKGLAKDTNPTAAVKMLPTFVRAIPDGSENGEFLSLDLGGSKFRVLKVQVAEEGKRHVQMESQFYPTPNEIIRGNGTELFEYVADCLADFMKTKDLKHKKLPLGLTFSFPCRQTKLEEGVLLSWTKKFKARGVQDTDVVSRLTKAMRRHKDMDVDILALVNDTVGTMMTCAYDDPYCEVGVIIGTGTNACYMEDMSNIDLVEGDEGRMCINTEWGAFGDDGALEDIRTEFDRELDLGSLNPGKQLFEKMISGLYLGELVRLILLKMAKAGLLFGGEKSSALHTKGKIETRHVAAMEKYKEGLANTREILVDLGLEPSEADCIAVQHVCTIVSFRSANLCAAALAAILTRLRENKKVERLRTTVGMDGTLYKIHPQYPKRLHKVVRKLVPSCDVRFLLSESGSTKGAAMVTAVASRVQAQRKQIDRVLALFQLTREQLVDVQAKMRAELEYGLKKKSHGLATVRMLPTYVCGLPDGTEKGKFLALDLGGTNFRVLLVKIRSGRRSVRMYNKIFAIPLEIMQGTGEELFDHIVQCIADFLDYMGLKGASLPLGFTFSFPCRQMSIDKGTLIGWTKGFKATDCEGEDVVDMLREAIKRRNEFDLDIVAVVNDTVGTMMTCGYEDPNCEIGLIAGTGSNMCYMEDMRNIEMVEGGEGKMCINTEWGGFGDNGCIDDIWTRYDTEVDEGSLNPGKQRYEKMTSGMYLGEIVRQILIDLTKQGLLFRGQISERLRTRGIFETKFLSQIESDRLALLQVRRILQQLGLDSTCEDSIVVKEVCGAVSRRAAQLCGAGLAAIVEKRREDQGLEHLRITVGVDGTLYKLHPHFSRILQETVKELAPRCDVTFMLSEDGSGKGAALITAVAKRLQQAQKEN

[8] = molecular target: Intestinal-type alkaline phosphatase (Mus musculus, UniProt P24822); assay: PubChem AID 488785; format: functional
[9] = molecular target: FAD-linked sulfhydryl oxidase ALR (Homo sapiens, UniProt P55789); assay: ALR-catalysed DTT oxidation blockers – biochemical, H2O2 detection, luminescence, cherry-pick, dose response (AID 493248)
[10] = molecular target: Intestinal-type alkaline phosphatase (Homo sapiens, UniProt P09923); assay: activation of human intestinal alkaline phosphatase – biochemical, dose response (AID 488873); format: functional
[11] = molecular target: T6, Alkaline phosphatase, tissue-nonspecific isozyme (Homo sapiens, UniProt P05186); assay: TNAP enzyme inhibition by screening hits, dose response, selectivity assay for mouse IAP inhibitor project, biochemical, human TNAP, uHTS hits (AID 488906); format: functional
T6 sequence (P05186 whole entry): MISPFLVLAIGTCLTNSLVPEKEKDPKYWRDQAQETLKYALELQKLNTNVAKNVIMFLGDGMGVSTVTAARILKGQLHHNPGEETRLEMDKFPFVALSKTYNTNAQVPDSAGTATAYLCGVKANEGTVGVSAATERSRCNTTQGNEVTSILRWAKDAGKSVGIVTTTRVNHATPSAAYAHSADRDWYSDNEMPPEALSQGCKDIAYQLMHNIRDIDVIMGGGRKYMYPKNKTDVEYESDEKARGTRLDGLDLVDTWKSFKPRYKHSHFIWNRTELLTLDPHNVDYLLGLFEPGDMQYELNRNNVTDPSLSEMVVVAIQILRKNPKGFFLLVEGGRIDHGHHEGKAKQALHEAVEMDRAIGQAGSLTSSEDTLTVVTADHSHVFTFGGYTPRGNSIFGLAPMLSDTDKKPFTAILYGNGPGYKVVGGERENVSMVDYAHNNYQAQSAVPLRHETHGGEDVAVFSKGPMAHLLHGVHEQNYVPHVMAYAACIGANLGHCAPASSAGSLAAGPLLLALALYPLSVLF

Bcl-2-like protein 10 = Bcl-2-like protein 10 (Homo sapiens, UniProt Q9HD36); assay: Bcl-B/TR3 peptide binding disruption – biochemical, fluorescence polarization, FITC-TR3 peptide, selectivity assay for Bfl-1 inhibitor project, primary screen (AID 748);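 further: fluorescence polarization from a fluorescein-labelled TR3 peptide binding purified Bcl-B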
Sequence of Bcl-2-like protein 10 (Q9HD36 whole entry): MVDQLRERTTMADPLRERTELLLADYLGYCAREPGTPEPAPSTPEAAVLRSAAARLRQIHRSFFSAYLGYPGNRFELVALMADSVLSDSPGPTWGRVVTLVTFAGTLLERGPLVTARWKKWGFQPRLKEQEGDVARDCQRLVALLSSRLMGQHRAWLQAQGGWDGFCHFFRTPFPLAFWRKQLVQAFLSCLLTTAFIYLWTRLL

T2 sequence (P34972 whole entry): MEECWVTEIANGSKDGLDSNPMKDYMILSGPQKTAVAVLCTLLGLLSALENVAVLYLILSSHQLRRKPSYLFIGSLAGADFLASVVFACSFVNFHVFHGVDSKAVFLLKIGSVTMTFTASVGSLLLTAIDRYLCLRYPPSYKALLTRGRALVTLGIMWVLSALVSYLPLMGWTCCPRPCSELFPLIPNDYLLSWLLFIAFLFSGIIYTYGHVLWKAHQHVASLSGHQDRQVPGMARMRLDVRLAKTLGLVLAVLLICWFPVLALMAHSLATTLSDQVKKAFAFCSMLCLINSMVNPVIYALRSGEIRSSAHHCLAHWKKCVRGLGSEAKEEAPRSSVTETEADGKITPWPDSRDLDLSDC
T1 sequence (Q9Y2T6 whole entry): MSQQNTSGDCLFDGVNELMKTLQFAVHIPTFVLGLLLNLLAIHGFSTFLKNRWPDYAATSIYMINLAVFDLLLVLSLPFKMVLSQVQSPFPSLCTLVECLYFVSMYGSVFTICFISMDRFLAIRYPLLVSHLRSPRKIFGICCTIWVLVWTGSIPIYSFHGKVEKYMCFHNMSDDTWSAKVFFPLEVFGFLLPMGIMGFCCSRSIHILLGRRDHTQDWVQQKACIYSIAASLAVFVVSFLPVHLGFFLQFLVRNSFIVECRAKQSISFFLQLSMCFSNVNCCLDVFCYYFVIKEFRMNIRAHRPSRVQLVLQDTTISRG
Sequence of FAD-linked sulfhydryl oxidase ALR (P55789 whole entry): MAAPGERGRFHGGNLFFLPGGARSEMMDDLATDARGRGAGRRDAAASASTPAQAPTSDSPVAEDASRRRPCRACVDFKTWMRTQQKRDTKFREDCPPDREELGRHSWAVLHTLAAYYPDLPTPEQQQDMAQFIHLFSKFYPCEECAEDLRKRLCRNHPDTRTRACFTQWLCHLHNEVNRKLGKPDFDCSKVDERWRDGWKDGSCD
Sequence of Intestinal-type alkaline phosphatase (Homo sapiens, UniProt P09923) (P09923 whole entry): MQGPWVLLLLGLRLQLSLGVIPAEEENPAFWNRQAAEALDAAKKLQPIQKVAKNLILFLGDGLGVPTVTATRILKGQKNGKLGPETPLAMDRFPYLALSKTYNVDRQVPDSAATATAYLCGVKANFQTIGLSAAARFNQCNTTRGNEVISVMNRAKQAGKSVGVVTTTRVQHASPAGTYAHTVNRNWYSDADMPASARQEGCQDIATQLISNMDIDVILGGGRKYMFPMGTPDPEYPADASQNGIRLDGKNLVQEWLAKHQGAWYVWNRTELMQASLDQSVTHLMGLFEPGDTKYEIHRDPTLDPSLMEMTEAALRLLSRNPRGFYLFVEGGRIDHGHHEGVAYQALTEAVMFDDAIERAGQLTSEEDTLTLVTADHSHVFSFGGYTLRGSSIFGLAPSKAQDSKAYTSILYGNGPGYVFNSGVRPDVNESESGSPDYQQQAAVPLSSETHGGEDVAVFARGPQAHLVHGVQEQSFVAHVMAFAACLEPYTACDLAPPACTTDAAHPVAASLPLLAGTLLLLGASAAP
Sequence of Intestinal-type alkaline phosphatase (Mus musculus, UniProt P24822) (P24822 whole entry): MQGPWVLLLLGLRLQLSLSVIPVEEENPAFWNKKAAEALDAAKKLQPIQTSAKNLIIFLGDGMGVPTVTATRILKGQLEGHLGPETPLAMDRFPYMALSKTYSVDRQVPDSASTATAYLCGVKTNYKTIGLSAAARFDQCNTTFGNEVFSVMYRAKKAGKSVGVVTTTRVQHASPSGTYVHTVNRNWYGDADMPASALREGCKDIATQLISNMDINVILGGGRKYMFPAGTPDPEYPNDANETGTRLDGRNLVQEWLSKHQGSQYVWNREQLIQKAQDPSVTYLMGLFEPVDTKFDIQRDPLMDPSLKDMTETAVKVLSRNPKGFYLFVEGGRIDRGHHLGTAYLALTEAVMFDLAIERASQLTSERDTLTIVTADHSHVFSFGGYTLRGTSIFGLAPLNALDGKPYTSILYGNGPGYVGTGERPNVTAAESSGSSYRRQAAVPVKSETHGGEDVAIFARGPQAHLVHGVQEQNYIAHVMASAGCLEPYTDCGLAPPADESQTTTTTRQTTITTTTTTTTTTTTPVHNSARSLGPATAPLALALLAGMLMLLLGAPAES
Sequence of Cannabinoid receptor 1 (P21554 whole entry): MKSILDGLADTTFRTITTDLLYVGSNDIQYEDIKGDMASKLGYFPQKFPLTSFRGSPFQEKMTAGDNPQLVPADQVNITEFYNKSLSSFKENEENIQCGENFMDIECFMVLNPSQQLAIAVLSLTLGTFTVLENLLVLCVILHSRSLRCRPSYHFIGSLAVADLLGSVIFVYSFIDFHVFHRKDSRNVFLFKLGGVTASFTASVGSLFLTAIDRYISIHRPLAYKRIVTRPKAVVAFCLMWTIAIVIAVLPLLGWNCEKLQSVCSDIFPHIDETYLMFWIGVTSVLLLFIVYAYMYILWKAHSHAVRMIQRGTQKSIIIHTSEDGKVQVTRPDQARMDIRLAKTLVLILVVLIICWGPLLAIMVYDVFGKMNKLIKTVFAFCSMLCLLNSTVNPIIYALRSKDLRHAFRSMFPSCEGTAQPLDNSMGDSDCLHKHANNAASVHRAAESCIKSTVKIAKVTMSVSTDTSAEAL
Sequence of Lysosomal acid glucosylceramidase (P04062 whole entry): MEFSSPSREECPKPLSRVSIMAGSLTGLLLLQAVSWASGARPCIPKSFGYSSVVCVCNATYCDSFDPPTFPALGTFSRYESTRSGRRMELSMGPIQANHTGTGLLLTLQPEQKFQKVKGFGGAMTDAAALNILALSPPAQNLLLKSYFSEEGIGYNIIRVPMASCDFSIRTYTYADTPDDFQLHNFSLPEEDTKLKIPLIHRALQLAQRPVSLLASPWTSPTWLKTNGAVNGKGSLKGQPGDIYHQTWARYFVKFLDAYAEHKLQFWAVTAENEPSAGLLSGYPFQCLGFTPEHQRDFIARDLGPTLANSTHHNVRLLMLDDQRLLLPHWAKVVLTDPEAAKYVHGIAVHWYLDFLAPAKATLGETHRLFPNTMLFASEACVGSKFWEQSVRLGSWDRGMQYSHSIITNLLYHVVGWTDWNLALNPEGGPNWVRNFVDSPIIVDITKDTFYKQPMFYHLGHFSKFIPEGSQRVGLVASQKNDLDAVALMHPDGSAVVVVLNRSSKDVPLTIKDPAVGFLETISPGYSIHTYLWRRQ

SMILES: COc1cc2c(cc1NC(=O)CSc1ccccc1)oc1ccccc12
- IC50 (Cannabinoid receptor 1): > 32 µM (inactive)
- EC50 [1]: 0.671 µM (active)
- EC50 (Cannabinoid receptor 2 [2]): > 32 µM (inactive)
- EC50 [3]: 0.627 µM (active)
- IC50 (Cannabinoid receptor 2 [4]): > 32 µM (inactive)

SMILES: O=C(Cn1ncc2c3ccccc3nc-2c1O)Nc1ccc(CN2CCCCC2)cc1
- EC50 [5]: > 100 µM (inactive)

SMILES: Cc1ccc(OC(C)C(=O)Nc2cc(Cl)ccc2Cl)c([N+](=O)[O-])n1 (stereo not given)
- EC50 [6]: > 50 µM (inactive)

SMILES: C/N=C1/SC(CC(=O)Nc2cccc(C(F)(F)F)c2)C(=O)N1C (stereo not given)
- EC50 [7]: > 50 µM (not active)

SMILES: Cc1cc(Oc2ccc(C(C)(C)C)cc2)nc(N2CCOCC2)n1
- EC50 (Hexokinase HKDC1): > 80 µM (inactive)

SMILES: Cc1cc(C)cc(OCCOc2ccc(C)nc2[N+](=O)[O-])c1
- EC50 [6]: > 50 µM (inactive)

SMILES: Cc1ccc(C)c(S(=O)(=O)Nc2ccc(O)c(Sc3nnc[nH]3)c2)c1
- IC50 [8]: 2.75 µM (active)
- AC50 [9]: 2.05 µM (active)
- EC50 [10]: 11.9 µM (active)
- IC50 [11]: 5.46 µM (active)

SMILES: Cc1ccc(OCCC(=O)OCC(=O)Nc2ccc(Cl)cn2)cc1
- IC50 (Bcl-2-like protein 10): 72.8 µM (inactive)
